Results published in PMC12371492, “Poly-Arginine Tails and Helical Segments of Natural Antimicrobial Peptides Display Concerted Action at Membranes for Enhanced Antimicrobial Effects” (ACS Bio & Med Chem Au, 2025).
Like-named read-outs stand apart in the source and are kept apart here. Ends that are not written are not given here.

Assays:
[1] = system: Vibrio cholerae O1 El Tor strain C6706; format: cell-based; settings: CM9-Hepes pH 7.4, 5 × 10^5 cfu/mL, 20 h at 37 °C shaking, OD 600 nm, triplicate
bacteria = bacteria and source not stated (discussion)
[2] = Calcein dye leakage assay on LUVs
Method: Calcein leakage assays were done on large unilamellar vesicles (LUVs) following a procedure previously described. , Briefly, a 3:1 POPC/POPG lipid film (containing 4 μmol total of lipids) was prepared in a round-bottom flask using the lipids dissolved in chloroform. The solvent was removed under N2 gas before drying overnight under vacuum. The next day, the lipid cake was hydrated with 300 μL of 80 mmol/L calcein dye (pH 7.4) to generate a suspension that was subjected to 3 freeze–thaw cycles before extrusion through a 0.1 μm polycarbonate filter placed in a mini extruder (Avanti Polar Lipids). Untrapped calcein was separated from the LUVs by chromatography using a Sephadex G-50 column run with HEPES buffer (50 mmol/L, 100 mmol/L NaCl, 0.3 mmol/L EDTA, pH 7.4). A total phosphorus assay was performed to determine the exact lipid concentration of the LUVs. After diluting the vesicles to a final concentration of ∼35 μmol/L, the LUVs were plated in 180 μL wells and exposed to 20 μL of TP4 solutions serially diluted from stock, as needed to generate peptide-to-lipid ratios (P/L) ranging from P/L = 1:2 and 1:1024. Triplicates of each well were run, and at least three independent assays were performed as well. The 96-well plate was incubated at 20 °C with shaking for 40 min. After equilibration at room temperature, the fluorescence was measured using a BioTek SynergyH1 plate reader (BioTek, Winooski, VT) using excitation and emission wavelengths of 490 and 520 nm, respectively. The fractional leakage produced by TP4 was calculated using the equation: %leakage=Ix−I0%/I100%−I0% where I x is the fluorescence intensity in a peptide-containing well, I 100% is the intensity of the positive control (100% leakage obtained with 20 μL of 1% Triton-X detergent), and I 0% is the intensity of the negative control (0% leakage obtained with 20 μL nanopure water). P1 was run in parallel for comparative purposes. The dose–response curves were fitted in GraphPad Prism using a modified version of the Hill equation to extract the EC50 as the P/L where half of the dye has been released. […]

[3] = system: Escherichia coli (E. coli) MG1655; format: cell-based
Method: (§1) Minimum inhibitory concentrations were determined by broth microdilution technique. Two bacterial species were used: Gram-positive bacteria Staphylococcus epidermidis (S. epidermidis), derived from ATCC 14990 and Gram-negative bacteria Escherichia coli (E. coli) MG1655, respectively. S. epidermidis was grown in TSB, and E. coli was grown in MHB. Both were stored at 4 °C on their respective growth medium agar plates. Before the assay, bacteria were grown overnight in 5 mL of growth medium at 37 °C. The grown bacteria were further subcultured in 3 mL of growth medium by diluting to 1% until the O.D. reached 0.4–0.6 within 2.5–3 h. After the bacteria reached the mid log phase, further dilution was made to attain an O.D. of 0.001 to get a final of ∼10^5 CFU/mL in each well of a 96-well plate. An Opentron OT_2 robot pipetting system was used to automatically prepare serial dilutions of peptides and add the bacteria to attain a total volume of 100 μL in each well. The wells containing only medium served as a negative blank. The plate was then incubated for 24 h at 37 °C, and the O.D. of the plate was recorded at 600 nm using a BioTek (Agilent, Santa Clara, CA) microplate reader (Figure S1). The lowest concentration at which no bacterial growth was observed was considered the MIC of the peptide.

[4] = system: Staphylococcus epidermidis (S. epidermidis), derived from ATCC 14990; format: cell-based
Method: as §1

[5] = broth microdilution, MHB, ~10^5 CFU/mL, 24 h at 37 °C, O.D. 600 nm, lowest concentration with no growth
[6] = broth microdilution, TSB, ~10^5 CFU/mL, 24 h at 37 °C, O.D. 600 nm, lowest concentration with no growth

| Substance | MIC Vibrio cholerae [1] [µM] | MIC values (bacteria) [µM] | MIC E. coli [3, 5] [µM] | MIC S. epidermidis [4, 6] [µM] | other results |
| --- | --- | --- | --- | --- | --- |
| FFHHIFRGIVHVGKTIHRLVTG-NH2 [P1, reference compound] | 16 | < 1 | – | – | – |
| FFHHIFRGIVHVGKTIHRLVTGRRRRR-NH2 [P1-R5, P1 with the R5 motif added at the C-terminal end] | – | – | – | – | EC50, L/P yielding 50% calcein leakage ([2]; 3:1 POPC/POPG LUVs ~35 μmol/L lipid, HEPES pH 7.4, 40 min at 20 °C, fluorescence 490/520 nm, ± standard error, three assays in triplicate): 97.2 ± 3.4 L/P; calcein leakage ([2]; POPC/POPG liposomes, P/L of 1:10): 100%; factor more active than P1 (EC50 ratio) ([2]; calcein leakage, 3:1 POPC/POPG LUVs): 3.4 fold |
| FIHHIIGGLFSAGKAIHRLI-NH2 [TP4-noR5] | – | – | 16 | 2 | – |
| FIHHIIGGLFSAGKAIHRLIRRRRR-NH2 [TP4] | 1 | < 1 | – | – | MIC E. coli ([3]; MG1655, 24 h): 4 µM; MIC S. epidermidis ([4]; ATCC 14990, 24 h): 1 µM |
| QLAQALAAALAALAQGW-NH2 [NP] | – | – | >64 | >64 | – |
| QLAQALAAALAALAQGWRRRRR-NH2 [NP-R5] | – | – | 7.5 | 2 | – |
